Here are results for 28 molecules from ChEMBL document CHEMBL5390303, “Discovery of Potent and Oral Bioavailable MAT2A Inhibitors for the Treatment of MTAP-Deleted Tumors” (ACS Med Chem Lett, 2023).

Data set [1] relates to HCT-116. In words: Antitumor activity against MTAP-knockout human HCT-116 cells xenografted in Nu/Nu mouse model assessed as inhibition of tumor growth at 50 mg/kg, po qd measured after 21 days relative to control. It counts as functional. The conditions noted are these: HCT-116, 504 h, time 21 day, read-out: TGI.
Data set [2] addresses S-adenosylmethionine synthase isoform type-2 (Homo sapiens, UniProt P31153). In words: Inhibition of MAT2A (unknown origin) using L-methionine as substrate preincubated for 30 mins followed by substrate addition measured after 60 mins by colorimetric assay.
Data set [3] in a line: Plasma protein binding in rat assessed as unbound fraction at 1 uM incubated for 6 hrs by LC-MS/MS based rapid equlibrium dialysis method. It counts as ADME, cell-free.
The nature of data set [4]: Metabolic stability in human liver microsomes assessed as intrinsic clearance. It counts as ADME, Microsome. To be noted: read-out: CLH.
The nature of data set [5]: Tmax in ICR mouse plasma at 10 mg/kg, IG measured after 24 hrs by LC-MS/MS analysis. It counts as ADME, organism-based. To be noted: po.
Data set [6] can be described thus: Toxicity in Nu/Nu mouse xenografted with MTAP-knockout human HCT-116 cells assessed as maximum body weight loss at 10 to 20 mg/kg, po qd measured after 21 days. It counts as organism-based. The conditions noted are these: in vivo, 504 h, dose 10-20 mg/kg, time 21 day.
The nature of data set [7]: AUClast in male Beagle dog at 3 mg/kg, po incubated for 24 hrs by LC-MS/MS analysis. It counts as ADME, organism-based, Canis lupus familiaris. Also on record: dose 3 mg/kg, time 24 hrs, route po. To be noted: in vivo.
Data set [8] concerns the target Cytochrome P450 2D6 (Homo sapiens, UniProt P10635). The experiment in a line: Inhibition of human liver microsomes CYP2D6 using Dextromethorphan as substrate incubated for 5 mins with compound followed by substrate and NADPH addition measured after 10 mins by LC-MS/MS analysis. It counts as ADME, Microsome.
Data set [9] can be described thus: AUClast in ICR mouse plasma at 10 mg/kg, IG incubated for 24 hrs by LC-MS/MS analysis. The conditions noted are these: po. More on the design: dose 10 mg/kg, time 24 hrs, route ig. It counts as ADME, organism-based.
Data set [10] in a line: Half life in ICR mouse plasma at 10 mg/kg, IG measured after 24 hrs by LC-MS/MS analysis. It counts as ADME, organism-based. The conditions noted are these: po.
Data set [11] deals with Cytochrome P450 2C9 (Homo sapiens, UniProt P11712). The experiment in a line: Inhibition of human liver microsomes CYP2C9 using Diclofenac as substrate incubated for 5 mins with compound followed by substrate and NADPH addition measured after 10 mins by LC-MS/MS analysis. It counts as ADME, Microsome.
A short description of data set [12]: Tmax in male Beagle dog at 3 mg/kg, po incubated for 24 hrs by LC-MS/MS analysis. It counts as ADME, organism-based, Canis lupus familiaris. The conditions noted are these: in vivo.
The target in data set [13] is Cytochrome P450 2C19 (Homo sapiens, UniProt P33261). In words: Inhibition of human liver microsomes CYP2C19 incubated for 5 mins with compound followed by substrate and NADPH addition measured after 10 mins by LC-MS/MS analysis. It counts as ADME, Microsome.
Data set [14] has as its system HCT-116. The experiment in a line: Antitumor activity against MTAP-knockout human HCT-116 cells xenografted in Nu/Nu mouse model assessed as tumor growth inhibition at 10 mg/kg, po qd measured after 21 days relative to control. It counts as functional. The conditions noted are these: HCT-116, 504 h, time 21 day, read-out: TGI.
Data set [15] in a line: AUC(0 to last) in male Sprague-Dawley rat at 10 mg/kg, po incubated for 24 hrs by LC-MS/MS analysis. It counts as ADME, organism-based. Also on record: dose 10 mg/kg, time 24 hrs, route po. To be noted: in vivo.
For data set [16], the target named is Cytochrome P450 3A4 (Homo sapiens, UniProt P08684). The experiment in a line: Inhibition of human liver microsomes CYP3A4 using Midazolam as substrate incubated for 5 mins with compound followed by substrate and NADPH addition measured after 5 mins by LC-MS/MS analysis. It counts as ADME, Microsome.
A short description of data set [17]: Half life in male Beagle dog at 3 mg/kg, po incubated for 24 hrs by LC-MS/MS analysis. It counts as ADME, organism-based, Canis lupus familiaris. To be noted: in vivo.
Data set [18] in a line: Plasma protein binding in human assessed as unbound fraction at 1 uM incubated for 6 hrs by LC-MS/MS based rapid equlibrium dialysis method relative to control. It counts as ADME, cell-free.
The nature of data set [19]: Half life in male Sprague-Dawley rat plasma at 10 mg/kg, po incubated for 24 hrs by LC-MS/MS analysis. It counts as ADME, organism-based.
Data set [20] in a line: Cmax in ICR mouse plasma at 10 mg/kg, IG measured after 24 hrs by LC-MS/MS analysis. The conditions noted are these: po. More on the design: dose 10 mg/kg, time 24 hrs, route ig. It counts as ADME, organism-based.
For data set [21], the system named is HCT-116. The experiment in a line: Antiproliferative activity against MTAP knockout human HCT-116 assessed as inhibition of cell proliferation incubated for 6 days by alamar blue reagent based analysis. It counts as functional. To be noted: HCT-116, 144 h.
The subject of data set [22] is HCT-116. The experiment in a line: Antitumor activity against MTAP-knockout human HCT-116 cells xenografted in Nu/Nu mouse model assessed as reduction in SAM concentration at 20 mg/kg, po qd administered for 21 days measured after 10 hrs post last dose relative to control. It counts as functional. More on the design: scale not given: the % may be the effect or the level left. To be noted: time 514 hrs.

The nature of data set [23]: Plasma protein binding in dog assessed as unbound fraction at 1 uM incubated for 6 hrs by LC-MS/MS based rapid equlibrium dialysis method. It counts as ADME, cell-free, Canis lupus familiaris.
A short description of data set [24]: Tmax in male Sprague-Dawley rat plasma at 10 mg/kg, po incubated for 24 hrs by LC-MS/MS analysis. It counts as ADME, organism-based.
Data set [25] is described as follows: Cmax in male Sprague-Dawley rat plasma at 10 mg/kg, po incubated for 24 hrs by LC-MS/MS analysis. It counts as ADME, organism-based. More on the design: time 24 hrs, dose 10 mg/kg, route po.
Data set [26] is described as follows: Plasma protein binding in mouse assessed as unbound fraction at 1 uM incubated for 6 hrs by LC-MS/MS based rapid equlibrium dialysis method. It counts as ADME, cell-free.
Data set [27] relates to HCT-116. The experiment in a line: Antitumor activity against MTAP-knockout human HCT-116 cells xenografted in Nu/Nu mouse model assessed as tumor growth inhibition at 20 mg/kg, po qd measured after 21 days relative to control. It counts as functional. To be noted: HCT-116, 504 h, time 21 day, read-out: TGI.
The nature of data set [28]: Cmax in male Beagle dog at 3 mg/kg, po incubated for 24 hrs by LC-MS/MS analysis. More on the design: dose 3 mg/kg, time 24 hrs, route po. It counts as ADME, organism-based, Canis lupus familiaris. The conditions noted are these: in vivo.

S-adenosylmethionine synthase isoform type-2, sequence (P31153 whole entry, canonical isoform): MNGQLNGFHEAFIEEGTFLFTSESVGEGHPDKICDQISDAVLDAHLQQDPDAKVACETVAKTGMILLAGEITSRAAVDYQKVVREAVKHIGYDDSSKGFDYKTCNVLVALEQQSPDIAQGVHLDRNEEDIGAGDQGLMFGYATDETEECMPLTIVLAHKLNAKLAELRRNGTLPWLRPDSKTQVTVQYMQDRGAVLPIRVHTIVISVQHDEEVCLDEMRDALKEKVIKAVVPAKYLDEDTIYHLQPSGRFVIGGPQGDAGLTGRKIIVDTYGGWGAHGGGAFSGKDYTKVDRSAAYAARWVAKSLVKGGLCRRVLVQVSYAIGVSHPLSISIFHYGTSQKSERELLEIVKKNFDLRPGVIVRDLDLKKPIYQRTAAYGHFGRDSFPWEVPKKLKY
Cytochrome P450 3A4, sequence (P08684 whole entry): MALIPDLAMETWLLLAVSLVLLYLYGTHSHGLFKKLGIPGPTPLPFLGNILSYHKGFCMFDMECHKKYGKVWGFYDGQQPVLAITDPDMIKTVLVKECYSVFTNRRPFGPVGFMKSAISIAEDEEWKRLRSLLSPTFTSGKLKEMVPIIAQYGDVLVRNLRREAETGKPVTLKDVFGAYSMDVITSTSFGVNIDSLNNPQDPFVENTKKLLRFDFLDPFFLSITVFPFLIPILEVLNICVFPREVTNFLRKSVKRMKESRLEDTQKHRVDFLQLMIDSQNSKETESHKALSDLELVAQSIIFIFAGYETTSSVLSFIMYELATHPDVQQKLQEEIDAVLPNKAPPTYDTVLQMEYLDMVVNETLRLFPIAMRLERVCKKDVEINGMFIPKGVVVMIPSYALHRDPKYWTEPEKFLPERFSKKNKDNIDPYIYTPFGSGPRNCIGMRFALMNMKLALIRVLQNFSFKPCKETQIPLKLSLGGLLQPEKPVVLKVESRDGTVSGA
Cytochrome P450 2D6, sequence (P10635 whole entry): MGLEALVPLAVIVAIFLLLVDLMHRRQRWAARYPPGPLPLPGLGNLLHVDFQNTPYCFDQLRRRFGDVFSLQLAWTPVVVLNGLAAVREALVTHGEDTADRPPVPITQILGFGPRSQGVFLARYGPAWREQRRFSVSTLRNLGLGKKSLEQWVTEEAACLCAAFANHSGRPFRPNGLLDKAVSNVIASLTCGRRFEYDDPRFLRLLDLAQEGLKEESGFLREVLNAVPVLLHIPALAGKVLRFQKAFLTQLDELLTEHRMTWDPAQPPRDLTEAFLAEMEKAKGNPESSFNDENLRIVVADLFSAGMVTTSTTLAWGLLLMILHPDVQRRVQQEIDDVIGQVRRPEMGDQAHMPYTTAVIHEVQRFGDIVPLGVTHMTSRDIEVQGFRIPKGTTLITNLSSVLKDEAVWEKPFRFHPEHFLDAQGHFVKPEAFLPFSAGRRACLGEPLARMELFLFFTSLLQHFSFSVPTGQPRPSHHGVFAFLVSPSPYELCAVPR
Cytochrome P450 2C9, sequence (P11712 whole entry): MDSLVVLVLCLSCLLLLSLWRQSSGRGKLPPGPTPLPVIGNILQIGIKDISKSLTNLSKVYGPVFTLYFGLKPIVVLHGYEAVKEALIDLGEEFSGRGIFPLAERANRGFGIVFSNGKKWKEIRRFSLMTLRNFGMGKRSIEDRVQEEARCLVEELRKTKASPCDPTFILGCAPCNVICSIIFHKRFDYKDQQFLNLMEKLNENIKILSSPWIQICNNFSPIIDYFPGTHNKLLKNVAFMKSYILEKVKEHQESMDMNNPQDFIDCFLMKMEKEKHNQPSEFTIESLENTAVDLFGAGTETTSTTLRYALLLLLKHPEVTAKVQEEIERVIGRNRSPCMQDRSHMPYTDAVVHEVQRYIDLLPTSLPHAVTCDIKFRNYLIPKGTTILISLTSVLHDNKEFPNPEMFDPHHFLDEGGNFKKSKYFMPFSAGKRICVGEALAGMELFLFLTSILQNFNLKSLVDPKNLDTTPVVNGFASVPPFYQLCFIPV
Cytochrome P450 2C19, sequence (P33261 whole entry): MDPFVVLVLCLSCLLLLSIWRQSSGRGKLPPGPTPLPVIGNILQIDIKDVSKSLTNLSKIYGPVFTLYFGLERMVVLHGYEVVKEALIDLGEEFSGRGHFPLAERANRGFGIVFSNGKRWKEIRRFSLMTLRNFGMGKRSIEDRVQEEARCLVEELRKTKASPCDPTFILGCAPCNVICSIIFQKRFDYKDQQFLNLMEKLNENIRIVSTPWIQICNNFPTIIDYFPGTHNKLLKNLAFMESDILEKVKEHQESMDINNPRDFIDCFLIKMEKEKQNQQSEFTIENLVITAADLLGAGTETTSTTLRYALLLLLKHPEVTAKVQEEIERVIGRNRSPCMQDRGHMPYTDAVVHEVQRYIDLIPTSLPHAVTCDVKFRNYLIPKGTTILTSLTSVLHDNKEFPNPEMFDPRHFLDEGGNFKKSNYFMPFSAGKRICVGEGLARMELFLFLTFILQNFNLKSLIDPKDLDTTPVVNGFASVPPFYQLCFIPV

Turning to `COc1ccc(-c2c(Nc3ccccn3)[nH]c3c(C4=CCCCC4)c(-c4ccccc4)nn3c2=O)cc1`, the inhibition in vivo at 50 mg/kg in data set [1] is 43%.

In turn, `CNc1nc(=O)c(-c2ccccc2Cl)c2cc(C(F)F)ccn12` came in with an IC50 in data set [2] of 49 nM.

For the molecule `O=c1nc(NC2CC2)n2ccc(C(F)(F)F)cc2c1-c1ccccc1F`, the 50% inhibitory concentration (IC50) in [2] is 120 nM.

On to `CNc1nc(=O)c(-c2cccc(Cl)c2)c2cc(C(F)(F)F)ccn12`, for which 107 nM corresponded to half-maximal inhibition in [2] (IC50).

As for `CNc1nc(=O)c(-c2cccc(C)c2)c2cc(C(F)(F)F)ccn12`, in data set [2], inhibition was half-maximal at 60 nM (IC50).

`CNc1nc(=O)c(-c2ccccc2Cl)c2cc(C)ccn12` yielded an IC50 in data set [2] of 143 nM.

Take `O=C(C1CC1)N1CC(=O)N(c2ccccc2Cl)c2cc(C(F)(F)F)ccc21`: the 50% inhibitory concentration (IC50) in [2] was 2550 nM.

In [2], `CC(C)Nc1nc(=O)c(-c2ccccc2F)c2cc(C(F)(F)F)ccn12` showed an IC50 of 80 nM.

As to `O=c1nc(NC2CC2)n2ccc(C(F)(F)F)cc2c1-c1cccnc1F`, the free fraction (fraction unbound) at 6 h, 1 µM in [3] was 0.329; in [18] it was 0.216; in data set [23], 0.325; in data set [26], 0.091. In addition, the IC50 in [2] was 40 nM; in [8], over 10000 nM; in data set [11], over 10000 nM; in data set [13] it was over 10000 nM; in [16], over 10000 nM; in data set [21] it was 273 nM. The CLint scaled in [4] is 1.4 mL/min/kg. Further, the Tmax in data set [5] was 0.67 h; in data set [12], 1.3 h; in data set [24], 3.3 h. The Activity in data set [6] turned out to be 11%; in [22] it was 79%. Also, the AUC(0-t) at 24 h is 9310 ng·h/mL in data set [7], 34000 ng·h/mL in data set [9] and 16200 ng·h/mL in data set [15]. Also, the half-life was 3.3 h in [10], 2.6 h in data set [17] and 3 h in [19]. Moreover, the inhibition in vivo at 10 mg/kg in [14] is 48%. Further, the results for the Cmax in [20], in data set [25] and in [28] were 16200 ng/mL, 2820 ng/mL and 1680 ng/mL, respectively. In data set [27], the inhibition in vivo at 20 mg/kg was 60%.

As to `CNc1nc(=O)c(-c2ccccc2F)c2cc(C(F)(F)F)ccn12`, in data set [2], inhibition was half-maximal at 45 nM (IC50).

Regarding `CNc1nc(=O)c(-c2ccccc2Cl)c2cc(C(F)(F)F)cnn12`, the IC50 in data set [2] is over 10000 nM.

`CNc1nc(=O)c(-c2cccc(F)c2)c2cc(C(F)(F)F)ccn12` showed an IC50 in data set [2] of 42 nM.

In data set [2], `CNc1nc(=O)c(-c2ccccc2)c2cc(C(F)(F)F)ccn12` had an IC50 of 65 nM.

As to `CNc1nc(=O)c(-c2ccc(C)cc2)c2cc(C(F)(F)F)ccn12`, the IC50 in [2] turned out to be 347 nM.

Turning to `CNc1nc(=O)c(-c2ccccc2Cl)c2cc(C(F)(F)F)ccn12`, the IC50 in data set [2] came to 49 nM.

`CNc1nc(=O)c(-c2c(F)cccc2F)c2cc(C(F)(F)F)ccn12` returned an IC50 in data set [2] of 65 nM.

Consider `CNc1nc(=O)n(-c2ccccc2Cl)c2cc(C(F)(F)F)sc12`, for which the IC50 in data set [2] worked out at 268 nM.

Regarding `CNc1nc(=O)c(-c2ccccc2Cl)c2cc(C3CC3)ccn12`, in [2], half-maximal inhibition (IC50) required 53 nM.

`CNc1nc(=O)c(-c2cccc(C#N)c2)c2cc(C(F)(F)F)ccn12`: inhibition in data set [2] was half-maximal at 199 nM (IC50).

With `O=c1nc(NC2CC2)n2ccc(C(F)(F)F)cc2c1-c1cccc(F)c1`, in data set [2], half-maximal inhibition (IC50) was put at 46 nM.

Molecule `O=c1nc(NC2CCC2)n2ccc(C(F)(F)F)cc2c1-c1ccccc1F` had an IC50 in [2] of 121 nM.

The molecule `CNc1nc(=O)n(-c2ccccc2Cl)c2c1CCN(C)C2` registered a concentration for half-maximal inhibition (IC50) in data set [2] of over 10000 nM.

Regarding `O=c1nc(NCC(F)F)n2ccc(C(F)(F)F)cc2c1-c1ccccc1F`, in data set [2], the 50% inhibitory concentration (IC50) was found to be 119 nM.

In data set [2], `CNc1cc(=O)n(-c2ccccc2Cl)c2nc(C(F)(F)F)ccc12` came in with an IC50 of 252 nM.

With `O=c1nc(N2CCCC2)n2ccc(C(F)(F)F)cc2c1-c1ccccc1F`, it took 531 nM to reach half-maximal inhibition in [2] (IC50).

As for `O=c1nc(N[C@H]2C[C@H](O)C2)n2ccc(C(F)(F)F)cc2c1-c1ccccc1F`, the IC50 in data set [2] was found to be 192 nM.

As to `O=c1nc(NC2CC2)n2ccc(C(F)(F)F)cc2c1-c1cccc(O)c1F`, the IC50 in data set [2] came out at 31 nM. In addition, in data set [5], the Tmax is 0.33 h. Also, the area under the curve AUC(0-t) at 24 h in data set [9] worked out at 8880 ng·h/mL. The molecule further gave a half-life in data set [10] of 7.7 h. For the same molecule, in data set [20], the highest level (Cmax) was 3960 ng/mL.

In [2], `CNc1nc(=O)c(-c2ccccc2C(C)C)c2cc(C(F)(F)F)ccn12` showed an IC50 of 68 nM.
